Assay results reported in patent US7750145B2, “1-substituted-3-β-D-glucopyranosylated nitrogenous hetero-cyclic compounds and medicines containing the same” (Kissei Pharmaceutical Co., Ltd., priority 2004, dated 2010).

System: SD rats
Assay: Assay for the effect on urinary glucose excretion
Assay type: in vivo, rat
Conditions: overnight fasted male SD rats, oral 1 mg/kg, urine collected for 24 hours
From the text: Assay for the Effect on Urinary Glucose Excretion
As experimental animals, overnight fasted SD rats (CHARLES RIVER LABORATORIES JAPAN. Inc., Crj:CD(SD)IGS, male, 7-8 weeks of age, 180-300 g) were used. The test compound was suspended with 0.5% methylcellulose solution and the suspension was used for administration. On the day before drug administration, the rats were transferred in metabolic cages and fasted from the evening. Throughout the study, the rats were given water ad libitum. The test compound was orally administered at the dose of 1 mg/kg and urine collection was performed for 24 hours after the compound administration. The rats were fed ad libitum from 4 hours after the compound administration. The volume of urine collected was measured and a part of urine was used as a sample for glucose concentration measurement. The samples were diluted as appropriate and the glucose concentrations were measured with Glucose CII-Test WAKO (Wako Pure Chemical Industries, Ltd.) and the amount of urinary glucose excretion per 200 g of body weight was calculated.

| SMILES | Amount of urinary excretion of glucose in 24 hours [mg/200 g body weight] |
| --- | --- |
| CCOc1ccc(Cn2cc([C@@H]3O[C@H](CO)[C@@H](O)[C@H](O)[C@H]3O)c3cccc(Cl)c32)c(F)c1 [Example 75] | 18 |
| COc1ccc(Cn2cc([C@@H]3O[C@H](CO)[C@@H](O)[C@H](O)[C@H]3O)c3cc(C)cc(C)c32)cc1 [Example 114] | 520 |
| COc1ccc(Cn2cc([C@@H]3O[C@H](CO)[C@@H](O)[C@H](O)[C@H]3O)c3cc(C)cc(F)c32)c(F)c1 [Example 97] | 507 |
| CCc1ccc(Cn2cc([C@@H]3O[C@H](CO)[C@@H](O)[C@H](O)[C@H]3O)c3ccccc32)cc1 [Example 3] | 15 |
| CCc1ccc(Cn2cc([C@@H]3O[C@H](CO)[C@@H](O)[C@H](O)[C@H]3O)c3cc(C)cc(F)c32)cc1 [Example 94] | 945 |
| COc1ccc(Cn2cc([C@@H]3O[C@H](CO)[C@@H](O)[C@H](O)[C@H]3O)c3cc(C)cc(F)c32)cc1 [Example 96] | 588 |
| OCCc1ccc(Cn2cc([C@@H]3O[C@H](CO)[C@@H](O)[C@H](O)[C@H]3O)c3cccc(Cl)c32)cc1 [Example 78] | 54 |
| CCOc1ccc(Cn2cc([C@@H]3O[C@H](CO)[C@@H](O)[C@H](O)[C@H]3O)c3cc(C)cc(F)c32)cc1 [Example 156] | 784 |
| Cc1cc(F)c2c(c1)c([C@@H]1O[C@H](CO)[C@@H](O)[C@H](O)[C@H]1O)cn2Cc1ccc(CCO)cc1 [Example 99] | 47 |
| Cc1cc(Cl)c2c(c1)c([C@@H]1O[C@H](CO)[C@@H](O)[C@H](O)[C@H]1O)cn2Cc1ccc(O)cc1 [Example 104] | 349 |
| CCc1ccc(Cn2cc([C@@H]3O[C@H](CO)[C@@H](O)[C@H](O)[C@H]3O)c3cccc(F)c32)cc1 [Example 61] | 98 |
| CCc1ccc(Cn2cc([C@@H]3O[C@H](CO)[C@@H](O)[C@H](O)[C@H]3O)c3cccc(C)c32)cc1 [Example 5] | 76 |
| COc1ccc(Cn2cc([C@@H]3O[C@H](CO)[C@@H](O)[C@H](O)[C@H]3O)c3c(C)ccc(Cl)c32)cc1 [Example 124] | 37 |
| Cc1ccc(Cn2cc([C@@H]3O[C@H](CO)[C@@H](O)[C@H](O)[C@H]3O)c3cc(C)cc(F)c32)cc1 [Example 93] | 275 |
| Cc1cc(F)c2c(c1)c([C@@H]1O[C@H](CO)[C@@H](O)[C@H](O)[C@H]1O)cn2Cc1ccc(O)cc1 [Example 95] | 40 |
| COc1ccc(Cn2cc([C@@H]3O[C@H](CO)[C@@H](O)[C@H](O)[C@H]3O)c3cccc(Cl)c32)cc1 [Example 73] | 532 |
| Cc1cc(Cl)c2c(c1)c([C@@H]1O[C@H](CO)[C@@H](O)[C@H](O)[C@H]1O)cn2Cc1ccc(OC(F)F)cc1 [Example 108] | 1229 |
| COc1ccc(Cn2cc([C@@H]3O[C@H](CO)[C@@H](O)[C@H](O)[C@H]3O)c3c(C)cccc32)c(F)c1 [Example 28] | 36 |
| CC(C)Oc1ccc(Cn2cc([C@@H]3O[C@H](CO)[C@@H](O)[C@H](O)[C@H]3O)c3cccc(Cl)c32)cc1 [Example 147] | 295 |
| CCOc1ccc(Cn2cc([C@@H]3O[C@H](CO)[C@@H](O)[C@H](O)[C@H]3O)c3cc(C)cc(Cl)c32)cc1 [Example 158] | 1708 |

| SMILES | Amount of urinary excretion of glucose in 24 hours [mg/200 g body weight] |
| --- | --- |
| Cc1ccc2c(c1)c([C@@H]1O[C@H](CO)[C@@H](O)[C@H](O)[C@H]1O)cn2Cc1ccc(OC(C)C)cc1 [Example 11] | 33 |
| COc1ccc(Cn2cc([C@@H]3O[C@H](CO)[C@@H](O)[C@H](O)[C@H]3O)c3c(C)ccc(Cl)c32)c(F)c1 [Example 125] | 50 |
| CC(C)Oc1ccc(Cn2cc([C@@H]3O[C@H](CO)[C@@H](O)[C@H](O)[C@H]3O)c3cccc(F)c32)cc1 [Example 145] | 11 |
| Cc1ccc(Cn2cc([C@@H]3O[C@H](CO)[C@@H](O)[C@H](O)[C@H]3O)c3cccc(Cl)c32)cc1 [Example 70] | 173 |
| CCc1ccc(Cn2cc([C@@H]3O[C@H](CO)[C@@H](O)[C@H](O)[C@H]3O)c3c(C)ccc(F)c32)cc1 [Example 116] | 24 |
| COc1ccc(Cn2cc([C@@H]3O[C@H](CO)[C@@H](O)[C@H](O)[C@H]3O)c3c(C)cccc32)cc1 [Example 2] | 27 |
| COc1ccc(Cn2cc([C@@H]3O[C@H](CO)[C@@H](O)[C@H](O)[C@H]3O)c3cc(C)cc(Cl)c32)c(F)c1 [Example 106] | 1910 |
| CCc1ccc(Cn2cc([C@@H]3O[C@H](CO)[C@@H](O)[C@H](O)[C@H]3O)c3c(C)cccc32)cc1 [Example 1, 1-(4-Ethylbenzyl)-3-(β-D-glucopyranosyl)-4-methyl-1H-indole] | 182 |
| CCOc1ccc(Cn2cc([C@@H]3O[C@H](CO)[C@@H](O)[C@H](O)[C@H]3O)c3cccc(Cl)c32)cc1 [Example 146] | 733 |
| OC[C@H]1O[C@@H](c2cn(Cc3ccc(OC(F)F)cc3)c3c(F)cccc23)[C@H](O)[C@@H](O)[C@@H]1O [Example 66] | 24 |
| COc1ccc(Cn2cc([C@@H]3O[C@H](CO)[C@@H](O)[C@H](O)[C@H]3O)c3cc(C)cc(Cl)c32)cc1 [Example 105] | 1693 |
| COc1ccc(Cn2cc([C@@H]3O[C@H](CO)[C@@H](O)[C@H](O)[C@H]3O)c3c(C)ccc(F)c32)cc1 [Example 118] | 12 |
| CCc1ccc(Cn2cc([C@@H]3O[C@H](CO)[C@@H](O)[C@H](O)[C@H]3O)c3cccc(Cl)c32)cc1 [Example 71] | 517 |
| COc1ccc(Cn2cc([C@@H]3O[C@H](CO)[C@@H](O)[C@H](O)[C@H]3O)c3cccc(Cl)c32)c(F)c1 [Example 74] | 629 |
| CCOc1ccc(Cn2cc([C@@H]3O[C@H](CO)[C@@H](O)[C@H](O)[C@H]3O)c3cccc(F)c32)cc1 [Example 144] | 251 |
| Cc1ccc(Cn2cc([C@@H]3O[C@H](CO)[C@@H](O)[C@H](O)[C@H]3O)c3cc(C)cc(Cl)c32)cc1 [Example 102] | 933 |
| CCc1ccc(Cn2cc([C@@H]3O[C@H](CO)[C@@H](O)[C@H](O)[C@H]3O)c3cc(C)ccc32)cc1 [Example 7] | 122 |
| COc1ccc(Cn2cc([C@@H]3O[C@H](CO)[C@@H](O)[C@H](O)[C@H]3O)c3cccc(F)c32)cc1 [Example 63] | 213 |
| OCCc1ccc(Cn2cc([C@@H]3O[C@H](CO)[C@@H](O)[C@H](O)[C@H]3O)c3cccc(F)c32)cc1 [Example 67] | 17 |
